What was measured:
Test in all cases: relative viability (nuclei count vs DMSO), 5 days (fraction); higher = more cells survive
QS11 + AZD7762 = compound: C1CC2=C(C1)C=C(C=C2)OC3=NC(=C4C(=N3)N(C=N4)CC5=CC=C(C=C5)C6=CC=CC=C6)N[C@@H](CC7=CC=CC=C7)CO [QS11] + NC(=O)Nc1cc(-c2cccc(F)c2)sc1C(=O)N[C@H]1CCCNC1 [AZD7762] (partner 0.2 µM)
How it was run: (§1)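 The day after seeding in 1536-well plates, lung cancer cell lines were treated by pin tool with a single drug, or with a fixed anchor-drug dose together with five library-drug doses (not always all listed) in √10 steps. After 5 days, a combined fix-and-stain solution (final 0.05% Triton X-100, 1% formaldehyde, 1 ug/ml Hoechst) was added. Nuclei counted on 4× images gave relative viability as treated counts over vehicle counts, reported as the median of duplicate plates.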

QS11 + Vorinostat = compound: C1CC2=C(C1)C=C(C=C2)OC3=NC(=C4C(=N3)N(C=N4)CC5=CC=C(C=C5)C6=CC=CC=C6)N[C@@H](CC7=CC=CC=C7)CO [QS11] + O=C(CCCCCCC(=O)Nc1ccccc1)NO [Vorinostat] (partner 1 µM)
How it was run: as §1

AZ628 + Alpelisib = compound: CC1=C(C=C(C=C1)NC(=O)C2=CC(=CC=C2)C(C)(C)C#N)NC3=CC4=C(C=C3)N=CN(C4=O)C [AZ628] + Cc1nc(NC(=O)N2CCC[C@H]2C(N)=O)sc1-c1ccnc(C(C)(C)C(F)(F)F)c1 [Alpelisib] (partner 2 µM)
How it was run: as §1

AZ628 + Bortezomib = compound: CC1=C(C=C(C=C1)NC(=O)C2=CC(=CC=C2)C(C)(C)C#N)NC3=CC4=C(C=C3)N=CN(C4=O)C [AZ628] + CC(C)C[C@H](NC(=O)[C@H](Cc1ccccc1)NC(=O)c1cnccn1)B(O)O [Bortezomib] (partner 0.002 µM)
How it was run: as §1

Cell Line	relative viability (QS11 + AZD7762; first compound 0.08 µM)	relative viability (QS11 + AZD7762; first compound 0.253 µM)	relative viability (QS11 + AZD7762; first compound 0.8 µM)	relative viability (QS11 + AZD7762; first compound 2.53 µM)	relative viability (QS11 + AZD7762; first compound 8 µM)	relative viability (QS11 + Vorinostat; first compound 0.08 µM)	relative viability (QS11 + Vorinostat; first compound 0.253 µM)	relative viability (QS11 + Vorinostat; first compound 0.8 µM)	relative viability (QS11 + Vorinostat; first compound 2.53 µM)	relative viability (QS11 + Vorinostat; first compound 8 µM)	relative viability (AZ628 + Alpelisib; first compound 0.08 µM)	relative viability (AZ628 + Alpelisib; first compound 0.253 µM)	relative viability (AZ628 + Alpelisib; first compound 0.8 µM)	relative viability (AZ628 + Alpelisib; first compound 2.53 µM)	relative viability (AZ628 + Alpelisib; first compound 8 µM)	relative viability (AZ628 + Bortezomib; first compound 0.08 µM)	relative viability (AZ628 + Bortezomib; first compound 0.253 µM)	relative viability (AZ628 + Bortezomib; first compound 0.8 µM)	relative viability (AZ628 + Bortezomib; first compound 2.53 µM)	relative viability (AZ628 + Bortezomib; first compound 8 µM)
LK-2	0.388	0.643	0.527	0.412	0.455	0.282	0.27	0.467	0.323	0.28	1.23	1.27	0.834	1.08	0.296	–	–	–	–	–
NCI-H358	0.542	0.474	0.529	0.6	0.681	0.64	0.602	0.782	0.65	0.49	0.745	0.639	0.668	0.571	0.389	–	–	–	–	–
NCI-H520	–	–	–	–	–	0.758	0.758	0.639	0.804	0.88	0.908	0.826	0.733	0.819	0.52	0.732	0.476	0.502	0.591	0.571
NCI-H522	0.798	0.871	0.878	1.11	0.863	0.799	0.871	0.766	1	0.999	–	–	–	–	–	–	–	–	–	–
NCI-H661	–	–	–	–	–	0.786	0.805	0.632	0.804	0.672	0.647	0.401	0.497	0.598	0.363	0.823	0.805	0.684	0.699	0.562
NCI-H1299	–	–	–	–	–	–	–	–	–	–	1.01	1.22	1.22	1.24	0.763	1.07	1.13	1.19	1.25	1.04
NCI-H1395	0.389	0.382	0.4	0.432	0.404	0.649	0.752	0.772	0.814	0.823	1.19	1.2	1.03	0.991	0.915	–	–	–	–	–
NCI-H1563	–	–	–	–	–	–	–	–	–	–	0.982	0.874	0.858	0.967	0.893	0.898	0.856	0.894	0.855	0.95
NCI-H1648	0.727	0.741	0.747	0.865	0.544	0.506	0.666	0.517	0.505	0.577	–	–	–	–	–	–	–	–	–	–
NCI-H1650	–	–	–	–	–	0.463	0.446	0.51	0.476	0.389	–	–	–	–	–	0.165	0.203	0.18	0.203	0.214
NCI-H1703	–	0.12	0.121	0.121	0.168	–	–	–	–	–	0.216	0.2	0.215	0.213	0.181	0.266	0.207	0.203	0.166	0.224
NCI-H1792	–	0.733	0.595	0.385	0.34	–	–	–	–	–	0.788	0.679	0.522	0.607	0.425	1.06	0.925	0.857	0.923	0.555
NCI-H1793	0.449	0.519	0.514	0.407	0.418	0.734	0.528	0.808	0.88	0.702	0.921	0.75	0.684	0.564	0.593	–	–	–	–	–
NCI-H1944	0.49	0.519	–	0.421	0.39	0.485	0.491	–	0.424	0.505	0.855	0.718	0.673	0.68	0.586	–	–	–	–	–
NCI-H2009	–	–	–	–	–	0.757	0.699	0.635	0.707	0.603	1.01	0.895	0.692	1.03	0.34	0.939	0.881	0.65	0.689	0.295
NCI-H2023	–	–	–	–	–	0.417	0.655	0.527	0.759	0.318	0.653	0.558	0.617	0.688	0.324	1.19	1.07	1.06	0.981	0.821
NCI-H2170	0.87	0.942	0.722	0.871	1.02	0.819	0.85	0.664	0.796	1.07	0.931	0.751	0.809	0.852	0.98	–	–	–	–	–
NCI-H2228	–	–	–	–	–	0.62	0.535	0.61	1.17	0.741	0.697	0.984	0.656	0.888	0.351	0.936	1.03	0.909	0.963	0.929
NCI-H2342	0.489	0.47	0.502	0.488	0.456	0.759	0.733	0.947	0.669	0.746	–	–	–	–	–	–	–	–	–	–
SK-LU-1	–	–	–	–	–	0.786	0.849	0.604	0.572	0.614	0.733	1.12	0.802	0.934	0.512	1.1	1.05	1.17	0.854	1.04
SK-MES-1	–	–	–	–	–	1.25	1.01	0.987	1.23	1.08	0.821	0.956	0.823	0.779	0.674	–	–	–	–	–
SW 900	0.603	0.549	0.611	0.502	0.504	0.295	0.378	0.452	0.457	0.348	–	–	–	–	–	–	–	–	–	–
SW 1573	–	–	–	–	–	0.912	0.629	0.52	0.296	0.253	0.787	0.742	0.693	0.567	0.538	0.952	0.911	0.886	0.946	0.621
UMC-11	–	–	–	–	–	0.385	0.373	0.462	0.37	0.459	1	0.987	0.949	1.13	1.1	0.935	0.571	0.694	0.739	0.666

Reference: the supplement of paper PMC10307832
